From EP4737449A1 (Changchun Genescience Pharmaceutical Co., Ltd., priority 2023, dated 2025)
pIC50: −log10 of the molar value. Like-named read-outs stand apart in the source and are kept apart here.

Legend:
NUGC-3 cells = assay: NUGC-3 cell proliferation assay (CTG, 7 days); type: cell-based, human; conditions: Homo sapiens, NUGC-3, 168 h
In short: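 Cells (200/well) in 1640 medium with 10% serum exposed to 10-point, 3-fold DMSO dilutions (duplicates) for 7 days at 37°C. Viability read by CellTiter-Glo luminescence; % inhibition normalized to DMSO and blank, IC50 from variable-slope nonlinear fit.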

[1] = molecular target: CYP 3A4 enzyme in human liver microsomes (Homo sapiens, UniProt P08684); assay: CYP3A4 inhibition experiment in human liver microsomes
Protocol: The inhibitory effects of the test compounds on CYP 3A4T (with testosterone as substrate) and 3A4M (with midazolam as substrate) in human liver microsomes were evaluated in vitro to assess the medication safety of the compounds.
This study used the human liver microsome system and the cytochrome P450 enzyme probe substrate recommended by FDA guidelines for in vitro drug interaction studies to investigate the inhibition of the CYP 3A4 enzyme in human liver microsomes by the test compounds.
Test group (TG): Human liver microsomes were incubated with different concentrations of test compounds, NADPH (final concentration 2.00 mM) and probe substrates of different sub-enzymes (Table 4) for 5 min.
Positive control group (PC): Human liver microsomes were incubated with inhibitors (Table 4), NADPH (final concentration 2.00 mM) and probe substrates of different sub-enzymes (Table 4) for 5 min. Table 4 Probe substrates of sub-enzymes, inhibitors and incubation systems
The system was pre-incubated at 37°C for 5 min, and then 15 µL of 8 mM NADPH solution preheated at 37°C for 5-10 min to start the reaction. After incubation of the 96-well plate at 37°C for 5 min, 180 µL of acetonitrile:methanol (ACN:MeOH=1:1) solution containing internal standard (IS) was added to terminate the reaction. […] 80 µL of the supernatant was taken, added to 120 µL of ultrapure water, shaken evenly, and then detected by LC-MS/MS.
199 µL of 0.2 mg/mL HLM and 1 µL of 1 mM positive control inhibitor (ketoconazole) working solutions were taken and mixed evenly. 30 µL of the drug-containing liver microsome solution was taken and added to a 96-well plate, then 10 µL of substrate working solution (20 µM midazolam) was added, in duplicate. The system was pre-incubated at 37°C for 5 min, and then 15 µL of 8 mM NADPH solution preheated at 37°C for 5-10 min to start the reaction. After incubation of the 96-well plate at 37°C for 5 min, 180 µL of ACN:MeOH(1:1) solution containing IS was added to terminate the reaction. […] 80 µL of the supernatant was taken, added to 120 µL of ultrapure water, shaken evenly, and then detected by LC-MS/MS.
4.2.5.1 The relative activity of CYP450 sub-enzymes at different concentrations was calculated by dividing the peak area ratio (analyte peak area/internal standard peak area) of metabolites in the presence of the test sample or positive control by the peak area ratio of metabolites in the solvent control sample in the absence of the test article or positive control, according to the following formula: [formula] [formula]
4.2.5.2 Half maximal inhibitory concentration (IC50) was obtained by fitting according to the following model formula using Prism software: Y = Bottom + (Top−Bottom)/(1+10^(∧)((LogIC50−X)×HillSlope)) [formula]
X is the test sample concentration converted to logarithm (Log µM), Y is the relative activity (% of NC), Bottom and Top represent the percentage of enzyme activity at the bottom platform and top platform of the curve, respectively, and HillSlope represents the slope; to optimize the fitting effect, the use of other (nonlinear) dose-response models for fitting is not considered as a deviation from the protocol.

[2] = NUGC-3 cell proliferation, 7 days, CTG, read-out: IC50
[3] = CYP 3A4M IC50, human liver microsomes, midazolam as substrate
[4] = CYP 3A4T IC50, human liver microsomes, testosterone as substrate

Sequence of CYP 3A4 enzyme in human liver microsomes (P08684 whole entry): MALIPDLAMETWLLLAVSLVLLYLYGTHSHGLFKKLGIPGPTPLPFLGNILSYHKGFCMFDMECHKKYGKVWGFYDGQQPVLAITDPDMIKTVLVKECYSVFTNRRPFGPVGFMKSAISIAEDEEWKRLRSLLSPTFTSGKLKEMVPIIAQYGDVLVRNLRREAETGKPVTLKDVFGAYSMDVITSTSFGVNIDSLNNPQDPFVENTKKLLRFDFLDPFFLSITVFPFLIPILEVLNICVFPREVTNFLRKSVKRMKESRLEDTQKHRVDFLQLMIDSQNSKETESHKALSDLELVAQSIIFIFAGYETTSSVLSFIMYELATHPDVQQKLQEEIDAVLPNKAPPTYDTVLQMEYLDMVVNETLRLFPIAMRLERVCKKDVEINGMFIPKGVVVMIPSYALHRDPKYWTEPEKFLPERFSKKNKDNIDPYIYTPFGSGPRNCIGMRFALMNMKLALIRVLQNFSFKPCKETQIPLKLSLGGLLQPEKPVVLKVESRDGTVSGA

Row | Compound | pIC50 (NUGC-3 cells; [2]) | pIC50 [1, 3] | pIC50 [1, 4] | pIC50 (NUGC-3 cells)
1 | CN1CC[C@@H](Nc2cccc3c(CC(F)(F)F)c(C#CCNC(=O)c4cnn(C(C)(C)C)c4)nn23)[C@@H](F)C1 [Compound 001, 1-tert-butyl-N-[3-(7-{[(3S,4R)-3-fluoro-1-methylpiperidin-4-yl]amino}-3-(2,2,2-trifluoroethyl)pyrazolo[1,5-a]pyridin-2-yl)prop-2-yn-1-yl]-1H-pyrazole-4-carboxamide] | 6.41 | 4.58 | 4.57 | 
2 | CN1CC[C@@H](Nc2cccc3c(CC(F)(F)F)c(C#CCNC(=O)c4cnn(C(C)(C)C)c4N)nn23)[C@@H](F)C1 [Compound 047] |  | 4.68 | 4.76 | 6.89
3 | CCn1ncc(C(=O)NCC#Cc2nn3c(N[C@@H]4CCN(C)C[C@@H]4F)cccc3c2CC(F)(F)F)c1N [Compound 261, 5-amino-1-ethyl-N-[3-(7-{[(3S,4R)-3-fluoro-1-methylpiperidin-4-yl]amino}-3-(2,2,2-trifluoroethyl)pyrazolo[1,5-a]pyridin-2-yl)prop-2-yn-1-yl]-1H-pyrazole-4-carboxamide] |  | 4.81 | 5.13 | 6.76
4 | CNC(=O)c1ccc(NCC#Cc2cc3c(N[C@@H]4CCN(C)C[C@@H]4F)cccc3n2CC(F)(F)F)c(OC)c1 [Control compound, reference compound] | 6.42 | 5.03 | 5.37 | 
